In US10597388B2, “Pyridazinone herbicides” (FMC CORPORATION, priority 2014, dated 2020):

Experiments:
Assay type in all cases: in vivo
[1] = system: barnyardgrass (Echinochloa crus-galli); assay: Test A greenhouse herbicide test, pre- and postemergence
Summary of the method: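 Seeds in loam–sand blend received a preemergence directed soil spray; plants at 2–10 cm, one- to two-leaf stage, received postemergence sprays. Compounds in a non-phytotoxic solvent with surfactant. After about 10 d in a greenhouse, injury rated visually versus untreated controls on a 0–100 scale (100 = complete control).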

[2] = system: blackgrass (Alopecurus myosuroides); assay: Test A greenhouse herbicide test, postemergence; conditions: for Plant response rating, Blackgrass: 125 g ai/ha, 0 to 100 scale where 0 is no effect and 100 is complete control; for Blackgrass plant response rating: 500 g ai/ha, 0 to 100 scale, 0 is no effect, 100 is complete control
Summary of the method: (§1)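 Pot-grown plants (loam soil/sand blend), 2–10 cm tall at the one- to two-leaf stage, received postemergence sprays of formulated test chemical. After about 10 d in the greenhouse, injury was rated visually against untreated controls on a 0 (no effect) to 100 (complete control) scale.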

[3] = system: galium (catchweed bedstraw, Galium aparine); assay: Test A greenhouse herbicide test, postemergence; conditions: for Galium plant response rating: 0 to 100 scale, 0 is no effect, 100 is complete control
Summary of the method: as §1

[4] = system: chickweed (common chickweed, Stellaria media); assay: Test C greenhouse herbicide test, postemergence
Excerpt: (§2) At the same time, plants selected from these crop and weed species and also chickweed (common chickweed, Stellaria media), kochia (Kochia scoparia), and oat, wild (wild oat, Avena fatua), were planted in pots containing Redi-Earth® planting medium (Scotts Company, 14111 Scottslawn Road, Marysville, Ohio 43041) comprising spaghnum peat moss, vermiculite, wetting agent and starter nutrients and treated with postemergence applications of test chemicals formulated in the same manner. Plants ranged in height from 2 to 18 cm (1- to 4-leaf stage) for postemergence treatments. Treated plants and controls were maintained in a greenhouse for 13 to 15 d, after which time all species were compared to controls and visually evaluated. Plant response ratings, summarized in Table C, are based on a scale of 0 to 100 where 0 is no effect and 100 is complete control. A dash (-) response means no test result.

[5] = system: kochia (Kochia scoparia); assay: Test C greenhouse herbicide test, postemergence
Excerpt: as §2

[6] = system: oat, wild (wild oat, Avena fatua); assay: Test C greenhouse herbicide test, postemergence
Excerpt: as §2

[7] = Postemergence, 125 g ai/ha, 0 to 100 scale where 0 is no effect and 100 is complete control
[8] = Postemergence, 500 g ai/ha, 0 to 100 scale, 0 is no effect, 100 is complete control
[9] = Preemergence, 125 g ai/ha, 0 to 100 scale where 0 is no effect and 100 is complete control
[10] = Preemergence, 500 g ai/ha, 0 to 100 scale where 0 is no effect and 100 is complete control
[11] = 125 g ai/ha, 0 to 100 scale where 0 is no effect and 100 is complete control
[12] = 500 g ai/ha, visual rating after approx. 10 d, 0 to 100 scale (0 no effect, 100 complete control)
[13] = Postemergence, 31 g ai/ha, scale 0 to 100 (0 no effect, 100 complete control)
[14] = Postemergence, 125 g ai/ha, scale 0 to 100, 0 is no effect, 100 is complete control
[15] = Postemergence, 250 g ai/ha, scale 0 to 100, 0 no effect, 100 complete control, 13 to 15 d
[16] = postemergence, 62 g ai/ha, scale 0 to 100, 0 no effect, 100 complete control
[17] = Postemergence, 31 g ai/ha, 0 to 100 scale (0 no effect, 100 complete control)
[18] = Preemergence, 500 g ai/ha, 0 to 100 scale, 0 no effect, 100 complete control

| Structure (SMILES) | Plant response rating, Barnyardgrass [1, 7] | Barnyardgrass plant response rating [1, 8] | Barnyardgrass plant response rating [1, 9] | Plant response rating, Barnyardgrass [1, 10] | Plant response rating, Blackgrass [2] | Blackgrass plant response rating [2] | Plant response rating, Galium [3, 11] | Plant response rating, Galium [3, 12] | Plant response rating, Chickweed [4, 13] | Plant response rating, Chickweed [4, 14] | Plant response rating, Chickweed [4, 15] | Chickweed plant response rating [4, 16] | Plant response rating, Kochia [5, 13] | Plant response rating, Kochia [5, 14] | Plant response rating, Kochia [5, 15] | Plant response rating, Oat, Wild [6, 14] | Plant response rating, Oat, Wild [6, 15] | Chickweed plant response rating [4, 17] | Kochia plant response rating [5, 16] | Oat, Wild plant response rating [6, 16] | also measured |
| --- | --- | --- | --- | --- | --- | --- | --- | --- | --- | --- | --- | --- | --- | --- | --- | --- | --- | --- | --- | --- | --- |
| CCCC(=O)Oc1c(C)nn(C)c(=O)c1-c1c(CC)sc2ccc(C)cc12 [Compound 107] | 60 | 100 | 70 | 100 | 80 | 90 | 100 | 100 | 90 | 95 | 98 | 90 | 70 | 90 | 90 | 40 | 35 | – | – | – | Plant response rating, Oat, Wild [6, 13]: 20 |
| COC(=O)Oc1cnn(C)c(=O)c1-c1c(C)sc2ccccc12 [Compound 97] | 30 | 90 | 20 | 100 | 90 | 90 | 100 | 100 | – | 15 | 60 | 0 | – | 70 | 85 | 5 | 10 | 0 | 0 | 5 | – |
| COC(=O)Oc1c(C)nn(C)c(=O)c1-c1c(C)sc2ccc(C)cc12 [Compound 80] | 70 | 80 | 70 | – | 80 | 80 | 90 | – | – | 95 | 98 | 95 | – | 90 | 90 | 90 | 95 | 90 | 90 | 90 | Plant response rating, Barnyardgrass [1, 18]: 90; Galium plant response rating ([3]; 500 g ai/ha): 90; Kochia plant response rating [5, 17]: 90; Oat, Wild plant response rating [6, 17]: 90 |
| CC(=O)Oc1c(C)nn(C)c(=O)c1-c1c(C)sc2ccc(Cl)cc12 [Compound 108] | 30 | 90 | 20 | 100 | 80 | 90 | 100 | 100 | 90 | 95 | 98 | 90 | 90 | 95 | 100 | 90 | 90 | – | – | – | Plant response rating, Oat, Wild [6, 13]: 80 |
| CCC(=O)Oc1c(C)nn(C)c(=O)c1-c1c(C)ccc2ccccc12 [Compound 78] | 20 | 30 | 0 | – | 30 | 80 | 80 | – | – | 70 | 80 | 60 | – | 85 | 90 | 60 | 60 | 30 | 70 | 50 | Plant response rating, Barnyardgrass [1, 18]: 70; Galium plant response rating ([3]; 500 g ai/ha): 100; Kochia plant response rating [5, 17]: 45; Oat, Wild plant response rating [6, 17]: 35 |
